Here are results for 15 molecules from patent publication US6414029B1, “Vanadium complexes of monohydroxamates and pharmaceutical compositions comprising them” (priority 1997, dated 2002).

“Also recorded” adds a separate entry of the source. Read-outs that look alike come from different tables or passages of the source.

In one data set the test system is STZ-rats. In words: Blood glucose level in streptozocin(STZ)-treated rats. The format is in vivo, rat. How it is done: (b) Streptozocin(STZ)-treated rats: Diabetes was induced by a single intravenous injection of a freshly prepared solution of streptozocin (55 mg/kg of body weight) in 0.1 M citrate buffer (pH 4.5).
Each group received daily i.p. injections of 0.05 mmol/kg (at 11.00 a.m.), of the corresponding compound.

In a further data set the test system is rat adipocytes. In words: Lipogenesis bioassay ([U-14C]glucose incorporation into lipids) in rat adipocytes. Type of data set: cell-based. The settings on record: for Synergizing effect relative to that exerted by Glu(γ)HXM: 1:1 molar ratio; for Synergizing effect relative to that exerted by Glu(γ)HXM / Potentiation of the insulinomimetic (lipogenic) efficacy of VOCl2, in words: vanadium (+4); for Percent of maximal effect of insulin, Amino acid-HXM only (10 μM): free amino acid monohydroxamate 10 μM, lipogenesis; for Net Potentiating Effect (%): potentiation of lipogenic capacity of VOCl2 10 μM by equimolar HXM; for Potentiation of the insulinomimetic (lipogenic) efficacy of VOCl2, in words: equimolar HXM. How it is done: The fat pads of male Wistar rats were cut into small pieces with scissors and suspended in 3 ml of KRB buffer. […] Five ml of buffer was then added, and the cells were passed through a mesh screen. The cells were then allowed to stand for several minutes in a 15-ml plastic test tube at room temperature, floating, and the buffer underneath was removed. This procedure (suspension, floating, and removal of buffer underneath) was repeated three times.
In the lipogenic assay, for measurement of glucose uptake and its incorporation into lipids (lipogenesis), the adipocyte suspensions (3×10^5 cells/ml) were divided into plastic vials (0.5 ml per vial) and incubated for 60 min at 37° C. under an atmosphere of carbogen with 0.2 mM [U-^14C]glucose (4-7 mCi/mol), in either the absence or presence of insulin (100 ng/ml), and the complexes to be tested.

The subject of another data set is adipocytes. In words: Hexose influx (2-deoxy-D-[6-3H]glucose) into adipocytes. The format is cell-based, rat. Particulars: for Hexose influx, in words: two different concentrations (FIG. 4). As for the experimental part: In order to test the specific effect of free Glu(γ)HXM and the Glu(γ)HXM:NaVO3 (2:1) complex on the entrance of glucose into cells, an in vitro assay was performed using 2-deoxy-D-[6-^3H]glucose (2-DG). 2-DG is a non-metabolized analog of glucose and this assay thus represents the influence of a compound on glucose influx to cells, independent of glucose metabolism.
Aliquots (70 μl) of the aforementioned samples were transferred into tubes that contained 2-deoxy-D-[6-^3H]glucose (0.1 mM final concentration). After 3 minutes, phloretin ([…]) was added in order to terminate the penetration of 2-DG into the cells. Samples of the suspended cells were then transferred to tubes with silicone oil where, upon centrifugation, the cells separate from the KRB medium and leftover 2-DG.

Data set [1] concerns vanadium-enriched adipocytes. In words: Lipogenesis in vanadium-enriched versus normal adipocytes. Particulars: rats given NaVO3 12 mg/kg/day s.c. for five days (FIG. 8). Type of data set: cell-based, rat. As for the experimental part:
Lipogenesis was performed as described above using free Glu(γ)HXM to compare freshly prepared rat adipocytes (3×10^5 cells/ml) from non-enriched vanadium rats to the enriched-vanadium rats.

Data set [2] has as its system isoproterenol mediated lipolysis. In words: Inhibition of isoproterenol mediated lipolysis in vitro. The format is cell-based.
The subject of another data set is leukemia L1210 cells. Particulars: in vitro; cited from earlier work.
The next data set has as its system leukemia L1210. Particulars: in vivo; cited from earlier work.
The subject of a further data set is melanoma B16 cells. The settings on record: in vivo; cited from earlier work.
Data set [3] has as its system murine leukemia L5178Y. Particulars: in vitro; cited from earlier work.
Data set [4] deals with murine leukemia L5178Y. The settings on record: in vivo; cited from earlier work.
The subject of a further data set is Friend leukemia cells. Particulars: in vitro; cited from earlier work.
The target in a further data set is InsRTK (Rattus norvegicus, UniProt P15127). The settings on record: cited from earlier work.
Chain of InsRTK (P15127 27-1383): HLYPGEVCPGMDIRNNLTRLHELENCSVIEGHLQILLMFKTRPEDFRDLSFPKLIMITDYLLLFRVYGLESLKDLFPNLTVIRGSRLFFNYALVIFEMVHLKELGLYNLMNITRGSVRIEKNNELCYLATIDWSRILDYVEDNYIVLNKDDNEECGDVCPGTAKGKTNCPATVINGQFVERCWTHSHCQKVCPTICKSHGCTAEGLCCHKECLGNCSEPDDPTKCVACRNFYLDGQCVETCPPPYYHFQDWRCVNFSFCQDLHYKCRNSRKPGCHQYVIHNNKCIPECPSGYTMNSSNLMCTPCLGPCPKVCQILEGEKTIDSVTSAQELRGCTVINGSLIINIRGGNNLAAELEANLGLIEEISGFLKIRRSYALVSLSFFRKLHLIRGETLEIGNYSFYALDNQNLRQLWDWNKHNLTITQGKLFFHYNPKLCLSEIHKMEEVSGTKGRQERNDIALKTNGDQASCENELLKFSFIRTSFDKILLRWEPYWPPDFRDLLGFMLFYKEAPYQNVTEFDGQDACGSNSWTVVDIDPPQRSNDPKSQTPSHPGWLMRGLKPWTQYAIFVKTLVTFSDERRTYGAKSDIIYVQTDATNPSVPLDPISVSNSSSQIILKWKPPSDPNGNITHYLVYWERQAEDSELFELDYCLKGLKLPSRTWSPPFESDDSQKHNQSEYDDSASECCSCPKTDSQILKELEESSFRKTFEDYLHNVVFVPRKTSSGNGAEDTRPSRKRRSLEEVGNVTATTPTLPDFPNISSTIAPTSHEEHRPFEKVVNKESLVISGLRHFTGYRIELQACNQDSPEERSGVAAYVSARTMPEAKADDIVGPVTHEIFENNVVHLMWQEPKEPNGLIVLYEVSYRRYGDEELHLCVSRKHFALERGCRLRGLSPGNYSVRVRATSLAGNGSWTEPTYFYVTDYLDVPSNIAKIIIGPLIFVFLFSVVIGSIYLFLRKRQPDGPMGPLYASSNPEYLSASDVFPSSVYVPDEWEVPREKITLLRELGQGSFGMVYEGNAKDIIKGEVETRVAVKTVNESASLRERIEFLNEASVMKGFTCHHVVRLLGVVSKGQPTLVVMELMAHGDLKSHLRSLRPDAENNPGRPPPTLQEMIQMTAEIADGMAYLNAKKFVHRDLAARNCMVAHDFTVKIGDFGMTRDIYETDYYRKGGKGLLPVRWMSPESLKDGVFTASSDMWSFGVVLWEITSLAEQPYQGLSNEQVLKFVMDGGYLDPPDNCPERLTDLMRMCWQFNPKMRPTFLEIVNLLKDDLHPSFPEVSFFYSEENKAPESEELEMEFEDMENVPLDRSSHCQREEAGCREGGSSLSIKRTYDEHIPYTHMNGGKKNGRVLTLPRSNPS
Where [5] appears, read: insulin 100 ng/ml, typical experiment.

Turning to `Cl.Cl.[O]=[V]` [VOCl2, vanadyl chloride], the “Effect on blood glucose levels of STZ-rats, in words” value in the data set on STZ-rats (i.p. 0.02 mmol/kg/day, 12 days (FIG. 2)) is “no significant effect”.

Regarding `N[C@@H](CC(=O)NO)C(=O)O` [L-Asp(β)HXM, L-aspartic acid β-monohydroxamate], in the data set with rat adipocytes, the “Synergizing effect relative to that exerted by Glu(γ)HXM” value is listed as ~85%; the “Percent of maximal effect of insulin, Amino acid-HXM only (10 μM)” value (“Percent of maximal effect of insulin” below) is recorded as 8%; the “Net Potentiating Effect (%)” value amounted to 54%.

With L-histidine hydroxamate [His-HXM], in the data set with rat adipocytes, the “Percent of maximal effect of insulin” value stood at 4% and the “Net Potentiating Effect (%)” value was “˜3%”.

Regarding `NCCCC[C@H](N)C(=O)NO` [Lys-HXM, L-lysine hydroxamate], in the data set on rat adipocytes, the “Percent of maximal effect of insulin” value is listed as 0% (−4%) and the “Net Potentiating Effect (%)” value came to 0%.

For `N[C@@H](Cc1c[nH]c2ccccc12)C(=O)NO` [Trp-HXM, L-tryptophan hydroxamate], in the data set with rat adipocytes, the “Percent of maximal effect of insulin” value is given as 2% and the “Net Potentiating Effect (%)” value is “˜9%”.

Consider `O=C(NO)c1cccnc1` [Nic-HXM, nicotinic acid hydroxamate], for which, in the data set with rat adipocytes, the “Synergizing effect relative to that exerted by Glu(γ)HXM” value is on record as ~57%; the “Percent of maximal effect of insulin” value was 11%; the “Net Potentiating Effect (%)” value amounted to 29%.

With sodium metavanadate [NaVO3], the “Hexose influx, in words” value in the data set on adipocytes was “stimulate hexose influx”.

As for `CC(C)(N)C(=O)NO` [Aib-HXM, aminoisobutyric acid monohydroxamate], in the data set on rat adipocytes, the “Percent of maximal effect of insulin” value was 0% (−3%) and the “Net Potentiating Effect (%)” value came out at 0%.

As for `N[C@@H](CCC(=O)NO)C(=O)O` [Glu(γ)HXM, L-glutamic acid γ-monohydroxamate], the “Lipogenesis in the absence of exogeneously added vanadium, in words” value in the data set with rat adipocytes (10-100 μM (FIG. 6)) is “activates lipogenesis; also recorded: produce insulin effects”. The “Percent of maximal effect of insulin” value in the data set with rat adipocytes was 22%. The “Activation together with a saturated concentration of insulin, in words” value in the data set with rat adipocytes (in vitro) is listed as “additive to maximal effect”. Moreover, the “Net Potentiating Effect (%)” value with rat adipocytes is on record as 51%. The “Potentiation of vanadium (+5) in activating glucose metabolism in rat adipocytes” value in the data set on rat adipocytes (vanadium (+5)) was 7-10 fold. Also, in the data set with STZ-rats (STZ-treated diabetic rats), the “Elevation of the efficacy of vanadate to lower blood glucose levels” value is on record as 5-7 fold. Also, in the data set with adipocytes (20 and 40 μM, 30 min preincubation (FIG. 4)), the “Glucose entry into cells, magnitude as % of maximal insulin response” value was “about 60%”. The “Hexose influx, in words” value with adipocytes is “stimulate hexose influx”. Besides, in data set [1], the “Potentiation of intracellular vanadium in enriched-vanadium rat cells versus normal adipocytes, in words” value is recorded as “to a much greater extent”. In data set [2], the “Isoproterenol mediated lipolysis, in words” value is “inhibition of isoproterenol mediated lipolysis”. Moreover, the “Cytotoxicity, in words” value in the data set on leukemia L1210 cells, in the data set on leukemia L1210 and in the data set with melanoma B16 cells was “cytotoxic” each time.

Take `N[C@H](CC(=O)NO)C(=O)O` [D-Asp(β)HXM, D-Aspartic acid β-hydroxamate]: the “Antitumoral activity, in words” value with murine leukemia L5178Y [3] and in the data set on murine leukemia L5178Y [4] was “antitumoral activity” throughout. Besides, in the data set on Friend leukemia cells, the “Activity against Friend leukemia cells, in words” value is “active”.

With `N[C@H](CCC(=O)NO)C(=O)O` [D-Glu(γ)HXM, D-glutamic acid γ-monohydroxamate], in the data set with rat adipocytes, the “Synergistic action with vanadium, stereospecificity, in words” value is reported as “not facilitated”; the “Percent of maximal effect of insulin” value was 1%; the “Net Potentiating Effect (%)” value is recorded as 0%; the “Potentiation of the insulinomimetic (lipogenic) efficacy of VOCl2, in words” value is reported as “did not potentiate”.

On to “insulin: Porcine insulin purchased from Eli Lilly Co.”, for which, in the data set with rat adipocytes (setting [5]), the “Insulin-stimulated lipogenesis relative to basal” value is on record as 4-5 fold and the Vinsulin is 8,000-10,000 cpm per 3×10^5 cell/h.

As for `N=C(N)NCCC[C@H](N)C(=O)NO` [Arg-HXM, L-arginine hydroxamate], in the data set on rat adipocytes, the “Percent of maximal effect of insulin” value amounted to 4% and the “Net Potentiating Effect (%)” value was “˜2%”.

Turning to `CC(=O)N[C@@H](CCC(=O)NO)C(=O)O` [N-acetyl Glu(γ)HXM, N-acetyl-L-glutamic acid γ-monohydroxamate], in the data set on rat adipocytes, the “Percent of maximal effect of insulin” value was 0%; the “Net Potentiating Effect (%)” value amounted to 0%; the “Potentiation of the insulinomimetic (lipogenic) efficacy of VOCl2, in words” value is reported as “did not potentiate”.

Take `CN[C@@H]1C[C@H]2O[C@@](C)([C@@H]1OC)n1c3ccccc3c3c4c(c5c6ccccc6n2c5c31)C(=O)NC4` [Staurosporine]: at InsRTK, the Ki – broadly, a dissociation constant, usually derived from enzyme kinetics or from competition with a known ligand – is ~1000 nM.
